Test system: human whole blood
Assay: human whole blood assay verifying inhibitory activity of the inhibitor samples
Assay type: cell-based

Question: `CC(c1cc2ccccc2s1)N(O)C(N)=O` (stereo not shown) [Zileuton] was tested. Which “inhibitory activity in a human whole blood assay” value did it give?
Answer: verified
